# Reference: US8487108B2, “Piperidinyl carbamate intermediates for the synthesis of aspartic protease inhibitors” (Vitae Pharmaceuticals, Inc., priority 2005, dated 2013)
# Target: T1, trypsin-activated recombinant human renin (Homo sapiens, UniProt P00797)
# T1 sequence (P00797 67-406): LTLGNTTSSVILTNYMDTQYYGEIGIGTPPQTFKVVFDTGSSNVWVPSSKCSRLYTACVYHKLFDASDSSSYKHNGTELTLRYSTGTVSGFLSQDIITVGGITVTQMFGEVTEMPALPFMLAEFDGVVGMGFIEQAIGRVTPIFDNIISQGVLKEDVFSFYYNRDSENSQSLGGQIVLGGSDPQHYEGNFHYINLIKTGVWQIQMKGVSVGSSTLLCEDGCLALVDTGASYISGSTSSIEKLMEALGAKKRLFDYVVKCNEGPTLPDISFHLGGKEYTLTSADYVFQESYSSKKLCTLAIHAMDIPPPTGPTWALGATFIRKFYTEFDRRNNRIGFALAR
# Assay: Renin fluorescence assay (internally quenched peptide substrate)
# Type: biochemical
# Settings: compounds I*
# Summary of the method: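 Compounds (1 nM–10 μM final, DMSO) were mixed with internally quenched angiotensinogen-sequence substrate in pH 7.0 BES/NaCl/BSA buffer, then 0.2-2 nM trypsin-activated human renin added. Rate from the linear fluorescence increase (340 nm excitation, 495 nm emission) over 60-360 min at rt, compared with uninhibited control.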
row,IC50 [nM],SMILES
1,> 50,"CNC[C@@H](CC1(C)CCCCC1)NC(=O)N1CCC[C@@H]([C@@H](OCCNC(=O)OC)c2cc(F)cc(F)c2)C1 [I*-94a, methyl 2-((R)-(3,5-difluorophenyl)((R)-1-((R)-1-(methylamino)-3-(1-methylcyclohexyl)propan-2-ylcarbamoyl)piperidin-3-yl)methoxy)ethylcarbamate]"
2,< 10,"CNC[C@H](CC1(C)CCCCC1)NC(=O)N1CCC[C@@H]([C@@H](OCCNC(=O)OC)c2cc(F)cc(F)c2)C1 [I*-95a, methyl 2-((R)-(3,5-difluorophenyl)((R)-1-((S)-1-(methylamino)-3-(1-methylcyclohexyl)propan-2-ylcarbamoyl)piperidin-3-yl)methoxy)ethylcarbamate]"
3,< 10,"CNC[C@H](CC1CCCCC1)NC(=O)N1CCC[C@@H]([C@@H](OCCNC(=O)OC)c2c(C)ccc(F)c2F)C1 [I*-96a, methyl 2-((R)-((R)-1-((S)-1-cyclohexyl-3-(methylamino)propan-2-ylcarbamoyl)piperidin-3-yl)(2,3-difluoro-6-methylphenyl)methoxy)ethylcarbamate]"
4,< 20,"CNC[C@H](CC1CCCCC1)NC(=O)N1CCC[C@H]([C@@H](OCCNC(=O)OC)c2c(C)ccc(F)c2F)C1 [I*-97a, methyl 2-((R)-((S)-1-((S)-1-cyclohexyl-3-(methylamino)propan-2-ylcarbamoyl)piperidin-3-yl)(2,3-difluoro-6-methylphenyl)methoxy)ethylcarbamate]"
5,< 10,"CNC[C@H](C[C@H]1CCCOCC1)NC(=O)N1CCC[C@@H]([C@@H](OCCNC(=O)OC)c2cccc(Cl)c2)C1 [I*-98a, methyl 2-((R)-(3-chlorophenyl)((R)-1-((S)-1-(methylamino)-3-((R)-oxepan-4-yl)propan-2-yl-carbamoyl)piperidin-3-yl)methoxy)ethylcarbamate]"
6,< 10,"CNC[C@H](C[C@@H]1CCCOCC1)NC(=O)N1CCC[C@@H]([C@@H](OCCNC(=O)OC)c2cccc(Cl)c2)C1 [I*-99a, methyl 2-((R)-(3-chlorophenyl)((R)-1-((S)-1-(methylamino)-3-((S)-oxepan-4-yl)propan-2-ylcarbamoyl)piperidin-3-yl)methoxy)ethylcarbamate]"
7,< 1,"CNC[C@@H](NC(=O)N1CCC[C@@H]([C@@H](OCCNC(=O)OC)c2cccc(Cl)c2)C1)[C@@H](O)C1CCCCC1 [I*-100a, methyl 2-((R)-(3-chlorophenyl)((R)-1-((1S,2R)-1-cyclohexyl-1-hydroxy-3-(methylamino)propan-2-ylcarbamoyl)piperidin-3-yl)methoxy)ethylcarbamate]"
8,< 10,"CNC[C@H](CC1CCOCC1)NC(=O)N1CCC[C@@H]([C@@H](OCCNC(=O)OC)c2cc(Cl)ccc2C)C1 [I*-101a, methyl 2-((R)-(5-chloro-2-methylphenyl)((R)-1-((S)-1-(methylamino)-3-(tetrahydro-2H-pyran-4-yl)propan-2-ylcarbamoyl)piperidin-3-yl)methoxy)ethylcarbamate]"
9,< 50,"CNC[C@H](CC1CCC(O)CC1)NC(=O)N1CCC[C@@H]([C@@H](OCCNC(=O)OC)c2cccc(Cl)c2)C1 (stereo partly drawn) [I*-102a, methyl 2-((R)-(3-chlorophenyl)((R)-1-((S)-1-(4-hydroxycyclohexyl)-3-(methylamino)propan-2-ylcarbamoyl)piperidin-3-yl)methoxy)ethylcarbamate]"
10,< 20,"CNC[C@H](CC1CCOCC1)NC(=O)N1CCC[C@@H]([C@@](C)(OCCNC(=O)OC)c2cccc(Cl)c2)C1 [I*-103a, methyl 2-((R)-1-(3-chlorophenyl)-1-((R)-1-((S)-1-(methylamino)-3-(tetrahydro-2H-pyran-4-yl)propan-2-ylcarbamoyl)piperidin-3-yl)ethoxy)ethylcarbamate]"
11,< 1,"CNC[C@H](C[C@H]1CCCCOC1)NC(=O)N1CCC[C@@H]([C@@H](OCCNC(=O)OC)c2cccc(Cl)c2)C1 [I*-106a, methyl 2-((R)-(3-chlorophenyl)((R)-1-((S)-1-(methylamino)-3-((R)-oxepan-3-yl)propan-2-ylcarbamoyl)piperidin-3-yl)methoxy)ethylcarbamate]"
12,< 10,"CNC[C@@H](NC(=O)N1CCC[C@@H]([C@@H](OCCNC(=O)OC)c2cc(Cl)ccc2C)C1)[C@@H](O)C1CCCC1 [I*-107a, methyl 2-((R)-(5-chloro-2-methylphenyl)((R)-1-((1S,2R)-1-cyclopentyl-1-hydroxy-3-(methylamino)propan-2-ylcarbamoyl)piperidin-3-yl)methoxy)ethylcarbamate]"
13,< 50,"CNC[C@H](CC1CCOCC1)NC(=O)N1CCCC[C@@H]([C@@H](OCCNC(=O)OC)c2cccc(Cl)c2)C1 [I*-108a, methyl 2-((R)-(3-chlorophenyl)((R)-1-((S)-1-(methylamino)-3-(tetrahydro-2H-pyran-4-yl)propan-2-ylcarbamoyl)azepan-3-yl)methoxy)ethylcarbamate]"
14,< 1,"COC(=O)NCCO[C@@H](c1cc(Cl)ccc1C)[C@@H]1CCCN(C(=O)NC[C@@H](N)C[C@H]2CCCCOC2)C1 [I*-109a, methyl 2-((R)-((R)-1-((S)-2-amino-3-((R)-oxepan-3-yl)propylcarbamoyl)piperidin-3-yl)(5-chloro-2-methylphenyl)methoxy)ethylcarbamate]"
15,< 1,"CN[C@H](CNC(=O)N1CCC[C@@H]([C@@H](OCCNC(=O)OC)c2cccc(Cl)c2)C1)C[C@H]1CCCCOC1 [I*-110a, methyl 2-((R)-(3-chlorophenyl)((R)-1-((S)-2-(methylamino)-3-((R)-oxepan-3-yl)propylcarbamoyl)piperidin-3-yl)methoxy)ethylcarbamate]"
16,< 1,"CNC[C@H](CC1CCCCC1)NC(=S)N1CCC[C@@H]([C@@H](OCCNC(=O)OC)c2cccc(Cl)c2)C1 [I*-111a, methyl 2-((R)-(3-chlorophenyl)((R)-1-((S)-1-cyclohexyl-3-(methylamino)propan-2-ylcarbamothioyl)piperidin-3-yl)methoxy)ethylcarbamate]"
17,< 1,"CNC[C@@H](NC(=O)N1CCC[C@@H]([C@@H](OCCNC(=O)OC)c2cc(F)cc(F)c2)C1)[C@@H](O)C1CCCCC1 [I*-112a, methyl 2-((R)-((R)-1-((1S,2R)-1-cyclohexyl-1-hydroxy-3-(methylamino)propan-2-ylcarbamoyl)piperidin-3-yl)(3,5-difluorophenyl)methoxy)ethylcarbamate]"
18,< 10,"CNC[C@H](C[C@H]1CCCCOC1)NC(=O)N1CCC[C@@H]([C@@H](OCCNC(=O)OC)c2cc(F)cc(F)c2)C1 [I*-113a, methyl 2-((R)-(3,5-difluorophenyl)((R)-1-((S)-1-(methylamino)-3-((R)-oxepan-3-yl)propan-2-ylcarbamoyl)piperidin-3-yl)methoxy)ethylcarbamate]"
19,< 10,"CNC[C@H](CC1CCCCC1)NC(=O)N1CCC[C@@H]([C@@H](OCCNC(=O)OC)c2cc(F)cc(F)c2O)C1 [I*-114a, methyl 2-((R)—((R)-1-((S)-1-cyclohexyl-3-(methylamino)propan-2-ylcarbamoyl)piperidin-3-yl)(3,5-difluoro-2-hydroxyphenyl)methoxy)ethylcarbamate]"
